Converted amounts (≈) assume the structure as drawn. Where two headings read alike, the source gives them in different places. *1 amine or outer side, *2 acyl side, *3 side chain or, on linkers, in order; H or OH if unused. Where a SMILES comes first, the peptide text is derived from it. Bridges are numbered along the chain shown (N, C = ends). Roman numbers before positions name the chains, in order. [ ]: non-standard residue; d: D form. Actinocin(9to1) = Cc1c2oc3c(C)ccc(C(=O)[*:1])c3nc-2c(C(=O)[*:2])c(N)c1=O; NMeV = CN[C@H](C(=O)O)C(C)C; Sar = CNCC(=O)O

A short description of data set [1]: XTT cell proliferation (cytotoxicity) assay on McCoy cells. In kind it is cell-based. The note with it: mouse; McCoy cells, XTT, 48 h; read-out: IC50 (cytotoxicity). As to the method: Extract and compounds were dissolved in dimethyl sulfoxide (DMSO) and stored at −20°C. All tested compounds were diluted to the final concentration with RPMI 1640 and control cultures were diluted with 0.1% DMSO.
McCoy cells were maintained in monolayer culture at 37°C and 5% CO2 with 10% […] Medium, 10 μg/mL of penicillin, 10 μg/mL, streptomycin, 40 μg/mL gentamycin, and 0.25 μg/mL fungizone.
A microtiter plate with McCoy cells was used for testing all the ethanol extracts for cytotoxicity following the method of [26]. Cytotoxicity was measured by the XTT (sodium 3′-[1-(phenyl amino-carbonyl)-3,4-tetrazolium]-bis-[4-methoxy-6-nitro] benzene sulfonic acid hydrate) method using a cell proliferation kit II (Roche Diagnostics GmbH). Hundred microlitres of McCoy cells (1 × 10^5 mL) was seeded onto a microtiter plate and incubated for 24 h to allow the cells to attach to the bottom of the plate. Dilution series were made of the extract and compound and the various concentrations (400 to 3.1 μg/mL) were added to the microtitre plate and incubated for 48 h. The XTT reagents were added to a final concentration of 0.3 mg/mL and the cells were incubated for 1-2 hours. The positive drug control (Zearalenone) at concentrations range of (10 μg/mL to 0.6 μg/mL) was included in the assay. After incubation the absorbance of the colour was spectrophotometrically quantified using an ELISA plate reader, which measured the optical density at 490 nm with a reference wavelength of 690 nm. The assay was carried out in triplicate.

The subject of another data set is Candida albicans (Med I). Kind of data set: Microdilution MIC/MMC (INT) against Candida albicans. In kind it is cell-based. The note with it: C.a, Yeast, table title says mg/mL; for MBC: MMC in title. As to the method: (§1) The microorganisms used in this study include Actinomyces naeslundii (ATCC 19039), Actinomyces israelii (ATCC 10049), Aggregatibacter actinomycetemcomitans (ATCC 33384), Candida albicans (Med I), Porphyromonas gingivalis (ATCC 33277), Prevotella intermedia (ATCC 25611), and Streptococcus mutans (ATCC 25175). Bacteria were grown in the Casein-peptone Soy Agar medium (CASO) (Merck SA (Pty) Ltd.) under anaerobic conditions in a jar with anaerocult A (Merck SA (Pty) Ltd.), at 37°C for 48 hours. Sabouraud Dextrose Agar medium (SDA) (Merck SA (Pty) Ltd.) was used for the culturing of Candida albicans and incubated at 37°C for 24 hours under aerobic conditions. Subculturing was done once weekly.
(§2) The microdilution technique using 96-well microplates was used to obtain the MIC and MMC values of the crude extract against microorganisms under study. The extract was serially diluted in the 96-well plate with 48 hours old microorganisms (5 × 10^6 CFU/mL) grown at 37°C and the final concentration of extract and positive control (CHX) ranged from 25.0 mg/mL to 0.8 mg/mL. Microbial growth was indicated by adding 40 μL of (0.2 mg/mL) p-iodonitrotetrazolium violet (INT) (Sigma-Aldrich, South Africa) to microplate wells and incubated at 37°C for 48 hours. MIC was defined as the lowest concentration that inhibited the colour change of INT. […] These suspensions were reincubated at 37°C for 48 hours. The MMC was determined as the lowest concentration of extract which inhibited 100% growth of microorganisms.

Data set [2] relates to Actinomyces naeslundii (ATCC 19039). Kind of data set: Microdilution MIC/MMC (INT) against Actinomyces naeslundii. In kind it is cell-based. Conditions: A.n, Gram +ve, table title says mg/mL; for MBC: MMC in title. As to the method: as §1, §2
The test system of data set [3] is Porphyromonas gingivalis (ATCC 33277). Kind of data set: Microdilution MIC/MMC (INT) against Porphyromonas gingivalis. Conditions: P.g, Gram –ve, table title says mg/mL; for MBC: MMC in title. In kind it is cell-based. As for the experimental part:
as §1, §2

Data set [4] deals with Aggregatibacter actinomycetemcomitans (ATCC 33384). In words: Microdilution MIC/MMC (INT) against Aggregatibacter actinomycetemcomitans. The class given is cell-based. Conditions: A.a, Gram –ve, table title says mg/mL; for MBC: MMC in title. As for the experimental part:
as §1, §2

Data set [5] has as its system Actinomyces israelii (ATCC 10049). Kind of data set: Microdilution MIC/MMC (INT) against Actinomyces israelii. In kind it is cell-based. Conditions: A.i, Gram +ve, table title says mg/mL; for MBC: MMC in title. As for the experimental part:
as §1, §2

The subject of data set [6] is Prevotella intermedia (ATCC 25611). Kind of data set: Microdilution MIC/MMC (INT) against Prevotella intermedia. In kind it is cell-based. Conditions: P.i, Gram –ve, table title says mg/mL; for MBC: MMC in title. As for the experimental part: as §1, §2
Data set [7] deals with murine melanoma B16 cell line. Also noted: method as in PMID 15363977. The note with it: B16 cells; cited from earlier work.
Data set [8] is described as follows: DPPH free radical scavenging assay. The class given is biochemical. Conditions: 37°C, 30 min, 517 nm. As to the method:
The free radical scavenging activity was measured using 1, 1 diphenyl-2-picryl-hydraxyl (DPPH) assay with slight modifications. The ethanol extract of A. afra and Vitamin C (positive control) 1000 μg/mL (20 μL) was added in the first three wells of a 96-well plate containing 200 μL of distilled water to make up final concentration of 100 μg/mL and the remaining wells were filled with 110 μL of distilled water. The first raws containing the extract/compounds were serially diluted to wells which contain 110 μL of distilled water, and later, 90 μL of methanolic solution of DPPH ([…]) was added to all the wells. The final concentrations of the extract/compounds ranged from 100 to 0.8 μg/mL. The plates were incubated at 37°C for 30 min and the absorbance was measured at 517 nm using the ELISA plate reader. The percent radical scavenging activity by A. afra was determined by comparison with ethanol (blank). The inhibition ratio was calculated as follows: % DPPH radical-scavenging = (AC-AS)/AC × 100, where AC is absorbance of the control solution (containing only DPPH solution), and AS is the absorbance of the sample in DPPH solution. The percentage of DPPH radical-scavenging was plotted against the plant extract/compounds concentrations (μg/mL) to determine the concentration of extract/compound required to scavenge DPPH by 50% (EC50).

The subject of another data set is oral microorganisms. In words: Microdilution MIC/MMC, summary over tested microbial species. In kind it is cell-based. Conditions: against A. israelii and A. naeslundii; read-out: lowest MIC and MMC value. As to the method: as §1, §2
The mark [9] stands for this setting: Actinomyces naeslundii, ATCC19039.
The mark [10] stands for this setting: Porphyromonas gingivalis, ATCC33277.
The mark [11] stands for this setting: Actinomyces israelii, ATCC10049, read-out: MBC.
The mark [12] stands for this setting: Actinomyces israelii, ATCC10049, read-out: MIC.
The mark [13] stands for this setting: Prevotella intermedia, ATCC25611, read-out: MBC.
The mark [14] stands for this setting: Prevotella intermedia, ATCC25611, read-out: MIC.
[15] abbreviates: Porphyromonas gingivalis, ATCC33277, read-out: MIC.
[16] abbreviates: Aggregatibacter actinomycetemcomitans, ATCC33384.
Where [17] appears, read: Actinomyces israelii, ATCC10049.
Where [18] appears, read: Prevotella intermedia, ATCC25611.

Consider `Cc1c2oc3c(C)ccc(C(=O)N[C@@H]4C(=O)N[C@H](C(C)C)C(=O)N5CCC[C@H]5C(=O)N(C)CC(=O)N(C)[C@@H](C(C)C)C(=O)O[C@@H]4C)c3nc-2c(C(=O)N[C@@H]2C(=O)N[C@H](C(C)C)C(=O)N3CCC[C@H]3C(=O)N(C)CC(=O)N(C)[C@@H](C(C)C)C(=O)O[C@@H]2C)c(N)c1=O` [Actinomycin-D, reference compound] (I: T[dV]P[Sar][NMeV] / II: T[dV]P[Sar][NMeV]; ester I:1-I:C, II:1-II:C; linker I:N-II:N via Actinocin(9to1)), for which, in [1], the IC50 at 48 h is 0.00336 µg/mL (≈ 0.00268 µM).
For `[H]/N=C(\N/C(=N/[H])NCCCCCCNC(=N)NC(=N)Nc1ccc(Cl)cc1)Nc1ccc(Cl)cc1` [Chlorhexidine, chlorhexidine, reference compound], the MBC in the data set on Candida albicans (Med I) (read-out: MBC) was determined as 1.25 µg/mL (≈ 2.47 µM); in [2] (setting [9]), 1600 µg/mL (≈ 3170 µM); in data set [3] (Porphyromonas gingivalis, ATCC33277, read-out: MBC), 1.6 µg/mL (≈ 3.17 µM); in [4] (Aggregatibacter actinomycetemcomitans, ATCC33384, read-out: MBC), 1.6 µg/mL (≈ 3.17 µM); in data set [5] (setting [11]), 6.3 µg/mL (≈ 12.5 µM); in data set [6] (setting [13]), 6.3 µg/mL (≈ 12.5 µM). The MIC in the data set on Candida albicans (Med I) (read-out: MIC) is 6.3 µg/mL (≈ 12.5 µM); in data set [2] (setting [9]), 1600 µg/mL (≈ 3170 µM); in data set [3] (setting [10]) it was 1600 µg/mL (≈ 3170 µM); in [4] (Aggregatibacter actinomycetemcomitans, ATCC33384, read-out: MIC) it was 1.6 µg/mL (≈ 3.17 µM); in data set [5] (setting [12]), 6.3 µg/mL (≈ 12.5 µM); in data set [6] (setting [14]), 6.3 µg/mL (≈ 12.5 µM).
With `C=C1C(=O)OC2C1C(OC(C)=O)CC(=C)C1(O)C=CC(C)(O)C21` (stereo not drawn) [compound 2, 12α,4α-dihydroxybishopsolicepolide], the MBC in the data set on Candida albicans (Med I) is above 1000 µg/mL; in [2] (setting [9]), 1000 µg/mL (≈ 3120 µM); in data set [3] (setting [10]), above 1000 µg/mL; in data set [4] (setting [16]), above 1000 µg/mL; in [5] (setting [17]), 500 µg/mL (≈ 1560 µM); in data set [6] (setting [13]) it was 1 µg/mL (≈ 3.12 µM). Besides, the MIC against Candida albicans (Med I) was above 1000 µg/mL; in [2] (setting [9]) it was 500 µg/mL (≈ 1560 µM); in data set [3] (setting [15]) it was above 1 µg/mL; in data set [4] (setting [16]) it was above 1000 µg/mL; in [5] (setting [17]), 500 µg/mL (≈ 1560 µM); in data set [6] (setting [18]), 1000 µg/mL (≈ 3120 µM).
In the case of `C[C@H]1[C@H](C)CC[C@]2(C)CC[C@]3(C)C(=CC[C@@H]4[C@@]5(C)CC[C@H](O)C(C)(C)[C@@H]5CC[C@]43C)[C@H]12` [compound 4, α-amyrin], the MBC with Candida albicans (Med I) was above 1000 µg/mL; in data set [2] (Actinomyces naeslundii, ATCC19039, read-out: MBC), above 1 µg/mL; in [3] (setting [10]) it was above 1000 µg/mL; in data set [4] (setting [16]), above 1000 µg/mL; in data set [5] (setting [11]), above 1 µg/mL; in data set [6] (setting [18]) it was above 1000 µg/mL. The MIC against Candida albicans (Med I) was above 1000 µg/mL; in [2] (setting [9]), 1000 µg/mL (≈ 2340 µM); in data set [3] (setting [15]) it was above 1 µg/mL; in [4] (setting [16]), above 1000 µg/mL; in [5] (setting [12]) it was above 1 µg/mL; in data set [6] (setting [14]), above 1 µg/mL.
Consider `C=C(C)[C@@H]1CC[C@]2(C(=O)O)CC[C@]3(C)[C@H](CC[C@@H]4[C@@]5(C)CC[C@H](O)C(C)(C)[C@@H]5CC[C@]43C)[C@@H]12` [compound 6, betulinic acid], for which the MBC was above 1000 µg/mL in the data set on Candida albicans (Med I); 500 µg/mL (≈ 1090 µM) in [2] (setting [9]); above 1000 µg/mL in [3] (setting [10]); above 1000 µg/mL in data set [4] (setting [16]); 1000 µg/mL (≈ 2190 µM) in data set [5] (setting [17]); above 1000 µg/mL in data set [6] (setting [18]). Besides, the MIC with Candida albicans (Med I) is above 1000 µg/mL; in data set [2] (Actinomyces naeslundii, ATCC19039, read-out: MIC), 0.25 µg/mL (≈ 0.547 µM); in [3] (setting [10]) it was 1000 µg/mL (≈ 2190 µM); in data set [4] (setting [16]) it was above 1000 µg/mL; in [5] (setting [12]), 1 µg/mL (≈ 2.19 µM); in the data set on oral microorganisms it was 250 µg/mL (≈ 547 µM). In [6] (setting [18]), this compound had an MIC of 1000 µg/mL (≈ 2190 µM). Besides, the IC50 apoptotic effects in data set [7] was 22.5 µg/mL (≈ 49.3 µM). For the same compound, the “DPPH scavenging IC50” value in [8] came out at 2.42 µg/mL. Further, the IC50 at 48 h in data set [1] came to 31 µg/mL (≈ 67.8 µM).
With `O=C1O[C@H]([C@@H](O)CO)C(O)=C1O` [vitamin C, reference compound], the “DPPH scavenging IC50” value in data set [8] is 1.22 µg/mL.
For the compound phytol [compound 5], the MBC in the data set on Candida albicans (Med I) was above 1000 µg/mL; in data set [2] it was above 1.0 µg/mL; in [3], above 1000 µg/mL; in [4] it was above 1000 µg/mL; in data set [5], above 1.0 µg/mL; in [6] it was above 1000 µg/mL. For the same compound, the MIC with Candida albicans (Med I) was above 1000 µg/mL; in data set [2] it was above 1.0 µg/mL; in data set [3], above 1.0 µg/mL; in data set [4], above 1000 µg/mL; in [5], above 1.0 µg/mL; in [6], above 1.0 µg/mL.
